Reference: PMC4753412, “Involvement of an octose ketoreductase and two acyltransferases in the biosynthesis of paulomycins” (Scientific Reports, 2016)
≈ marks a conversion by molar mass, not a printed value. Where two headings read alike, the source gives them in different places.

How the values were obtained:
Experiment in all cases: microbe, parasite or virus in culture
Parameters in all cases: agar dilution antibacterial assay, minimum inhibitory concentration
Bacillus subtilis = settings: 24 h
Protocol: (§1) Antibacterial activity was determined by agar dilution method according to the method as described. […], […], Staphylococcus epidermidis, Staphylococcus aureus and Bacillus subtilis were used as the tested bacteria. After incubation for 24 h at 37 °C, the MICs were calculated (Table S3).

S. aureus = settings: Staphylococcus aureus, 24 h
Protocol: as §1

S. epidermidis = settings: Staphylococcus epidermidis, 24 h
Protocol: as §1

S. pneumoniae = settings: Streptococcus pneumoniae, 24 h
Protocol: as §1

S. pyogenes = settings: Streptococcus pyogenes, 24 h
Protocol: as §1

**Q.** Which results are given for `C/C=C(\N=C=S)C(=O)O[C@H]1[C@@H](O[C@H]2C[C@H](OC)[C@@](O)([C@H](C)OC(=O)C(C)C)[C@H](C)O2)[C@@H](O)[C@H]([C@@]2(O)CC(=O)C(=N)C(C(=O)O)=C2O)O[C@@H]1COC(C)=O` [compound 4, paulomycin B]?
**A.** MIC (Bacillus subtilis; read-out: MIC 4): 0.1 µg/mL (≈ 0.129 µM); MIC (S. aureus; read-out: MIC 4): 0.1 µg/mL (≈ 0.129 µM); MIC (S. epidermidis; read-out: MIC 4): 0.05 µg/mL (≈ 0.0647 µM); MIC (S. pneumoniae; read-out: MIC 4): 0.05 µg/mL (≈ 0.0647 µM); MIC (S. pyogenes; read-out: MIC 4): 0.025 µg/mL (≈ 0.0324 µM)

**Q.** For `CC=C(N=C=S)C(=O)OC1C(COC(C)=O)OC(C2(O)CC(=O)C(N)=C(C(=O)O)C2=O)C(O)C1OC1CC(OC)C(O)(C(C)OC(=O)C(C)CC)C(C)O1` (stereo not shown) [compound 3, 3], which MIC (Bacillus subtilis; read-out: MIC 3) is on record?
**A.** Its MIC is 0.1 µg/mL (≈ 0.127 µM).

**Q.** What about the MIC (S. aureus; read-out: MIC 3) of the same molecule?
**A.** The MIC was 0.1 µg/mL (≈ 0.127 µM).

**Q.** And the MIC (S. epidermidis; read-out: MIC 3)?
**A.** The MIC was 0.05 µg/mL (≈ 0.0635 µM).

**Q.** What about the MIC (S. pneumoniae; read-out: MIC 3) of the same molecule?
**A.** Its MIC is 0.05 µg/mL (≈ 0.0635 µM).

**Q.** And the MIC (S. pyogenes; read-out: MIC 3)?
**A.** The MIC was 0.025 µg/mL (≈ 0.0318 µM).

**Q.** With `CC=C(N=C=S)C(=O)OCC1OC(C2(O)CC(=O)C(N)=C(C(=O)O)C2=O)C(O)C(OC2CC(OC)C(O)(C(C)OC(=O)C(C)C)C(C)O2)C1O` (stereo not shown) [compound 8, 8] as the molecule, how does the MIC (Bacillus subtilis; read-out: MIC 8) read?
**A.** The MIC was over 100 µg/mL.

**Q.** And the MIC (S. aureus; read-out: MIC 8)?
**A.** The MIC was over 100 µg/mL.

**Q.** And the MIC (S. epidermidis; read-out: MIC 8)?
**A.** The MIC was over 100 µg/mL.

**Q.** What about the MIC (S. pneumoniae; read-out: MIC 8) of the same molecule?
**A.** The MIC was over 100 µg/mL.

**Q.** What about the MIC (S. pyogenes; read-out: MIC 8) of the same molecule?
**A.** The MIC was over 50 µg/mL.

**Q.** What does the source list for `CC=C(N=C=S)C(=O)OCC1OC(C2(O)CC(=O)C(N)=C(C(=O)O)C2=O)C(O)C(OC2CC(OC)C(O)(C(C)OC(=O)C(C)CC)C(C)O2)C1O` (stereo not shown) [compound 9, 9]?
**A.** MIC (Bacillus subtilis; read-out: MIC 9): > 100 µg/mL; MIC (S. aureus; read-out: MIC 9): > 100 µg/mL; MIC (S. epidermidis; read-out: MIC 9): > 100 µg/mL; MIC (S. pneumoniae; read-out: MIC 9): > 100 µg/mL; MIC (S. pyogenes; read-out: MIC 9): > 50 µg/mL

**Q.** How did the MIC (Bacillus subtilis; read-out: MIC 10) turn out when `CC=C(N=C=S)C(=O)OCC1OC(C2(O)CC(=O)C(N)=C(C(=O)O)C2=O)C(O)C(OC2CC(OC)C(O)(C(C)=O)C(C)O2)C1O` (stereo not shown) [compound 10, 10] was run?
**A.** Its MIC is over 100 µg/mL.

**Q.** And the MIC (S. aureus; read-out: MIC 10)?
**A.** The MIC was over 100 µg/mL.

**Q.** What about the MIC (S. epidermidis; read-out: MIC 10) of the same molecule?
**A.** The MIC was over 100 µg/mL.

**Q.** What about the MIC (S. pneumoniae; read-out: MIC 10) of the same molecule?
**A.** The MIC was over 100 µg/mL.

**Q.** What about the MIC (S. pyogenes; read-out: MIC 10) of the same molecule?
**A.** The MIC was over 100 µg/mL.
